pIC50, pKi: −log10 of the molar value.
How the values were obtained:
ICE = biological target: T1, ICE (Homo sapiens, UniProt P29466); test: Enzyme assay with UV-visible substrate (Succinyl-Tyr-Val-Ala-Asp-pNitroanilide); assay type: biochemical
T1 sequence (P29466 120-297 limits assumed): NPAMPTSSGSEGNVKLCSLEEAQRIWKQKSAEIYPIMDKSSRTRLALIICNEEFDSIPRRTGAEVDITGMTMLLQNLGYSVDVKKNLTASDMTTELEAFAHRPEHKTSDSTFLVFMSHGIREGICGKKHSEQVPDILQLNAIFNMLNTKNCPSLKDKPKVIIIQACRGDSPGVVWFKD
T1 sequence (P29466 317-404 limits assumed): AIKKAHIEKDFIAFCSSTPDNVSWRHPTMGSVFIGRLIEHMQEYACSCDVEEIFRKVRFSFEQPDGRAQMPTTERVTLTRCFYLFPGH
Experimental: 1. Enzyme Assay with UV-Visible Substrate
This assay is run using an Succinyl-Tyr-Val-Ala-Asp-pNitroanilide substrate. Synthesis of analogous substrates is described by L. A. Reiter (Int. J. Peptide Protein Res. 43, 87-96 (1994)). The assay mixture contains:
The visible ICE assay is run in a 96-well microtiter plate. Buffer, ICE and DMSO (if inhibitor is present) are added to the wells in the order listed. The components are left to incubate at room temperature for 15 minutes starting at the time that all components are present in all wells. The microtiter plate reader is set to incubate at 37° C. After the 15 minute incubation, substrate is added directly to the wells and the reaction is monitored by following the release of the chromophore (pNA) at 405-603 nm at 37° C. for 20 minutes. A linear fit of the data is performed and the rate is calculated in mOD/min. DMSO is only present during experiments involving inhibitors, buffer is used to make up the volume to 100 μl in the other experiments.
For determination of enzyme inhibition constants (Ki) or the mode of inhibition (competitive, uncompetitive or noncompetitive), the rate data determined in the enzyme assays at varying inhibitor concentrations are computer-fit to standard enzyme kinetic equations (see I. H. Segel, Enzyme Kinetics, Wiley-Interscience, 1975).

[1] = tested on: Human Peripheral Blood Mononuclear Cells (PBMC) or Enriched Adherent Mononuclear Cells; test: Cell assay: IL-1β assay with human PBMC or enriched adherent mononuclear cells; assay type: cell-based; settings: LPS-stimulated cells, mature IL-1β in supernatant by ELISA
From the text: IL-1β Assay with a Mixed Population of Human Peripheral Blood Mononuclear Cells (PBMC) or Enriched Adherent Mononuclear Cells
Processing of pre-IL-1S by ICE can be measured in cell culture using a variety of cell sources. Human PBMC obtained from healthy donors provides a mixed population of lymphocyte subtypes and mononuclear cells that produce a spectrum of interleukins and cytokines in response to many classes of physiological stimulators. Adherent mononuclear cells from PBMC provides an enriched source of normal monocytes for selective studies of cytokine production by activated cells.
An initial dilution series of test compound in DMSO or ethanol is prepared, with a subsequent dilution into RPMI-10% FBS media (containing 2 mM L-glutamine, 10 mM HEPES, 50 U and 50 ug/ml pen/strep) respectively to yield drugs at 4× the final test concentration containing 0.4% DMSO or 0.4% ethanol. The final concentration of DMSO is 0.1% for all drug dilutions. A concentration titration which brackets the apparent Ki for a test compound determined in an ICE inhibition assay is generally used for the primary compound screen.
We generally test 5-6 compound dilutions and have performed the cellular component of the assay in duplicate, with duplicate ELISA determinations on each cell culture supernatant.
Buffy coat cells isolated from one pint human blood (yielding 40-45 ml final volume plasma plus cells) are diluted with media to 80 ml and LeukoPREP separation tubes (Becton Dickinson) are each overlaid with 10 ml of cell suspension. After 15 min centrifugation at 1500-1800×g, the plasma/media layer is aspirated and then the mononuclear cell layer is collected with a Pasteur pipette and transferred to a 15 ml conical centrifuge tube (Corning). Media is added to bring the volume to 15 ml, gently mix the cells by inversion and centrifuge at 300×g for 15 min. Resuspend the PBMC pellet in a small volume of media, count cells and adjust to 6×10^6 cells/ml.
For the cellular assay, add 1.0 ml of the cell suspension to each well of a 24-well flat bottom tissue culture plate (Corning), 0.5 ml test compound dilution and 0.5 ml LPS solution (Sigma #L-3012; 20 ng/ml solution prepared in complete RPMI media; final LPS concentration 5 ng/ml). The 0.5 ml additions of test compound and LPS are usually sufficient to mix the contents of the wells. Three control mixtures are run per experiment, with either LPS alone, solvent vehicle control, and/or additional media to adjust the final culture volume to 2.0 ml. The cell cultures are incubated for 16-18 hr at 37° C. in the presence of 5% CO2.
At the end of the incubation period, cells are harvested and transferred to 15 ml conical centrifuge tubes. After centrifugation for 10 min at 200×g, supernatants are harvested and transferred to 1.5 ml Eppendorf tubes. It may be noted that the cell pellet may be utilized for a biochemical evaluation of pre-IL-1S and/or mature IL-1β content in cytosol extracts by western blotting or ELISA with pre-IL-1β specific antisera.
PBMC are isolated and prepared as described above. Media (1.0 ml) is first added to wells followed by 0.5 ml of the PBMC suspension. After a one hour incubation, plates are gently shaken and nonadherent cells aspirated from each well. Wells are then gently washed three times with 1.0 ml of media and final resuspended in 1.0 ml media. The enrichment for adherent cells generally yields 2.5−3.0×10^5 cells per well. The addition of test compounds, LPS, cell incubation conditions and processing of supernatants proceeds as described above.
We have used Quantikine kits (R&D Systems) for measurement of mature IL-1β. Assays are performed according to the manufacturer's directions. Mature IL-1β levels of about 1-3 ng/ml in both PBMC and adherent mononuclear cell positive controls are observed. ELISA assays are performed on 1:5, 1:10 and 1:20 dilutions of supernatants from LPS-positive controls to select the optimal dilution for supernatants in the test panel.

[2] = Homo sapiens, PBMC, Example 6 table

| SMILES | pKi (ICE; Example 4 table) | pKi (ICE; Example 6 table) | pIC50 ([1]; Homo sapiens, PBMC, Example 4 table) | pIC50 [1, 2] | pIC50 ([1]; Example 6 table) |
| --- | --- | --- | --- | --- | --- |
| COc1cccc2nc(C(=O)[C@H](CC(=O)O)NC(=O)[C@H](C)NC(=O)[C@@H](NC(=O)[C@H](Cc3ccc(O)cc3)NC(C)=O)C(C)C)oc12 [Compound 69a, (3S)N-(N-Acetyl-(S)-tyrosinyl-(S)-valinyl-(S)-alaninyl)-3-amino-4-(2-(7-methoxybenzoxazolyl))-4-oxobutanoate] | 7.96 |  | 6.13 |  |  |
| COc1cccc2nc(C(=O)[C@H](CC(=O)O)NC(=O)[C@@H]3C[C@@H](Oc4ccccc4)CN3C(C)=O)oc12 [Compound 87, N-Acetyl(4-(R)-phenoxy)prolinyl-3(S)-amino-4-(7-methoxybenzoxazol-2-yl)-4-oxo-butanoic acid] |  | 5.14 |  | 4.46 |  |
| O=C(O)C[C@H](NC(=O)Cn1c(Cc2ccccc2)ccc(NC(=O)CCc2ccccc2)c1=O)C(=O)COCc1ccccc1Cl [Compound 90, N-2-(6-Benzyl-1,2-dihydro-2-oxo-3-(3-phenylpropionyl)amino-1-pyridyl)acetyl-3-amino-5-(2-chlorobenzyloxy)-4-oxo-pentanoic acid] |  | 6.38 |  | 5.21 |  |
| O=C[C@H](CC(=O)O)NC(=O)[C@@H]1CCc2ncc(NC(=O)CCc3ccccc3)c(=O)n21 [Compound 98, 4-Oxo-(3S)-{[4-oxo-3-(3-phenyl-propionylamino)-4,6,7,8-tetrahydro-pyrrolo[1,2-a]pyrimidine-(6S)-carbonyl]-amino}-butyric acid] |  | 6.27 |  | 5.40 |  |
| O=C[C@H](CC(=O)O)NC(=O)CN1C(=O)[C@@H](NC(=O)CCc2ccccc2)CNc2ccccc21 [Compound 106a] |  | 5.64 |  | 4.52 |  |
| O=C[C@H](CC(=O)O)NC(=O)CN1C(=O)[C@@H](NC(=O)CCc2ccccc2)CN(Cc2ccccc2)c2ccccc21 [Compound 106c, 3(S)-{2-[5-Benzyl-2-oxo-3-(3(S)-phenylpropionylamino)-2,3,4,5-tetrahydrobenzo[b][1, 4]diazepin-1-yl]-acetylamino}-4-oxobutyric acid] |  | 5.42 |  | < 4.52 |  |
| COc1cccc2nc(C(=O)[C@H](CC(=O)O)NC(=O)[C@H](C)n3cccc(NC(=O)CCc4ccccc4)c3=O)oc12 [Compound 126] |  | 6.35 |  | 5.82 |  |
| C[C@@H](C(=O)N[C@@H](CC(=O)O)C(=O)c1ncc(-c2c(Cl)cccc2Cl)o1)n1cccc(NC(=O)CCc2ccccc2)c1=O [Compound 129] |  | 6.23 |  | 4.60 |  |
| O=C[C@H](CC(=O)O)NC(=O)[C@@H]1CCCN2C(=O)C[C@H](NC(=O)CCc3ccccc3)C(=O)N12 [Compound 132a] |  | 5.30 |  | < 4.52 |  |
| O=C[C@H](CC(=O)O)NC(=O)[C@@H]1CCCN2CC[C@H](NC(=O)CCc3ccccc3)C(=O)N12 [Compound 133] |  | 4.30 |  | < 4.52 |  |
| O=C[C@H](CC(=O)O)NC(=O)[C@@H]1Cc2ccccc2[C@H]2CCC[C@H](NC(=O)CCc3ccccc3)C(=O)N21 [Compound 140] |  | 6.06 |  | < 4.52 |  |

The next lines start with results.

| pKi (ICE; Example 4 table) | pKi (ICE; Example 6 table) | SMILES | pIC50 ([1]; Homo sapiens, PBMC, Example 4 table) | pIC50 [1, 2] | pIC50 ([1]; Example 6 table) |
| --- | --- | --- | --- | --- | --- |
|  | 6.76 | COc1cccc2nc(C(=O)[C@H](CC(=O)O)NC(=O)[C@@H]3C[C@@H](Oc4ccccc4)CN3C(=O)[C@@H](NC(C)=O)C(C)C)oc12 [Compound 86, N-Acetyl-(S)-valinyl-(4-(S)-phenoxy)prolinyl-3(S)-amino-4-(7-methoxybenzoxazol-2-yl)-4-oxo-butanoic acid] |  | 5.40 |  |
|  | 6.59 | O=C(O)C[C@H](NC(=O)Cn1c(Cc2ccccc2)ccc(NC(=O)CCc2ccccc2)c1=O)C(=O)c1ncc(-c2c(Cl)cccc2Cl)s1 [Compound 91] |  | < 4.60 |  |
|  | 6.54 | COc1cccc2nc(C(=O)[C@H](CC(=O)O)NC(=O)[C@@H]3CCc4ncc(NC(=O)CCc5ccccc5)c(=O)n43)oc12 [Compound 102b, 4-(7-methyoxy-benzoxazol-2-yl)-4-oxo-(3S)-{[4-oxo-3-(3-phenyl-propionylamino)-4,6,7,8-tetrahydro-pyrrolo[1,2-a]pyrimidine-(6S)-carbonyl]-amino}-butric acid] |  | 5.76 |  |
|  | 6.40 | COc1cccc2nc(C(=O)[C@H](CC(=O)O)NC(=O)CN3C(=O)[C@@H](NC(=O)CCc4ccccc4)CN(C(=O)CCc4ccccc4)c4ccccc43)oc12 [Compound 108b, 4-(7-Methoxybenzoxazol-2-yl)-4-oxo-3(S)-{2-[2-oxo-5-(3-phenylpropionyl)-3(S)-(3-phenylpropionylamino)-2,3,4,5-tetrahydrobenzo[b][1,4]diazepin-1-yl]-acetylamino}butyric acid] |  | 4.60 |  |
|  | 6.41 | O=C(O)C[C@H](NC(=O)Cn1c(Cc2ccccc2)ccc(NC(=O)CCc2ccccc2)c1=O)C(=O)CSCc1ccccc1Cl [Compound 125a] |  |  | < 4.52 |
|  | 6.41 | COc1cccc2nc(C(=O)[C@H](CC(=O)O)NC(=O)Cn3c(Cc4ccccc4)ccc(NC(=O)CCc4ccccc4)c3=O)oc12 [Compound 127] |  | 5.10 |  |
|  | 7.40 | O=C(O)C[C@H](NC(=O)Cn1c(Cc2ccccc2)ccc(NC(=O)CCc2ccccc2)c1=O)C(=O)c1ncc(-c2c(Cl)cccc2Cl)o1 [Compound 128] |  | 5.12 |  |
|  | 7.05 | COc1cccc2nc(C(=O)[C@H](CC(=O)O)NC(=O)[C@@H]3CCCN4C(=O)CC[C@H](NC(=O)CCc5ccccc5)C(=O)N34)oc12 [Compound 135a] |  | 6.05 |  |
|  | 6.49 | COc1cccc2oc(C(=O)[C@H](CC(=O)O)NC(=O)[C@@H]3CCCN4C(=O)CC[C@H](NC(=O)CCc5ccccc5)C(=O)N34)nc12 [Compound 135b] |  | 6.02 |  |
|  | 7.40 | O=C(O)C[C@H](NC(=O)[C@@H]1CCCN2C(=O)CC[C@H](NC(=O)CCc3ccccc3)C(=O)N12)C(=O)c1ncc(-c2c(Cl)cccc2Cl)o1 [Compound 137] |  | 6.60 |  |
|  | 6.46 | CS(=O)(=O)N[C@H]1CCC(=O)N2CCC[C@@H](C(=O)N[C@H](C=O)CC(=O)O)N2C1=O [Compound 139] |  | 5.70 |  |
|  | 6.49 | CC(C)[C@H](NC(=O)OCc1ccccc1)C(=O)N[C@@H](C)C(=O)N[C@@H](CC(=O)O)C(=O)c1ncc(-c2ccccc2C(F)(F)F)o1 [Compound 144] |  | < 4.70 |  |

Reference: US20110015371A1 (Vertex Pharmaceuticals Incorporated, priority 1994, published 2011)
